Results: ChEMBL document CHEMBL2007661, “Compounds: GSK PKIS; Assays: UNC Frye lab” (2012)
“And” between values parts separate entries of the source, which are not always exact repeats. Identical values can stand only once.

Columns and labels:
[1] = biological target: T1, Inhibitor of nuclear factor kappa-B kinase subunit beta (Homo sapiens) (UniProt O14920); conditions: at 1 µM
T1 sequence (whole entry): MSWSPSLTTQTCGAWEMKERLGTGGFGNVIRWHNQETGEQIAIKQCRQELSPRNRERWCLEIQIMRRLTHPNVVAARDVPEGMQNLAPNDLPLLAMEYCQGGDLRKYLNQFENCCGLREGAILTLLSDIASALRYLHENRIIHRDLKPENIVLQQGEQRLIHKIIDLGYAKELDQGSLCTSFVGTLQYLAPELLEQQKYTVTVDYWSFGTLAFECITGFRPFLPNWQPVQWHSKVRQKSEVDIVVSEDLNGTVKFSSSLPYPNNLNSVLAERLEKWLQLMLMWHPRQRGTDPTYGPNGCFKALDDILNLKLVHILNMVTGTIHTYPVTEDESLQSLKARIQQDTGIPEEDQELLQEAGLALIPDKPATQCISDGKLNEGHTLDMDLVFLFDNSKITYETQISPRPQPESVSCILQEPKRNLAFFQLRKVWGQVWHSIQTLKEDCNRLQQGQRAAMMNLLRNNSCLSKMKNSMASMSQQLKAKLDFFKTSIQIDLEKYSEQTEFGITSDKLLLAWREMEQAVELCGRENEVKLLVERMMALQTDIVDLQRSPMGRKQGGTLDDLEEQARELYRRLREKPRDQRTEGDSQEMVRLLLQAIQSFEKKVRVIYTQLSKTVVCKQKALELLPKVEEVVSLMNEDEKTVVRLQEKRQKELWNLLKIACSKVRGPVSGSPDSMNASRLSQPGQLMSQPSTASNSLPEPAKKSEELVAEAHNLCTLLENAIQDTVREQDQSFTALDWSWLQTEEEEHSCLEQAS

[2] = biological target: T2, Inhibitor of nuclear factor kappa-B kinase subunit epsilon (Homo sapiens) (UniProt Q14164); conditions: at 1 µM
T2 sequence (whole entry): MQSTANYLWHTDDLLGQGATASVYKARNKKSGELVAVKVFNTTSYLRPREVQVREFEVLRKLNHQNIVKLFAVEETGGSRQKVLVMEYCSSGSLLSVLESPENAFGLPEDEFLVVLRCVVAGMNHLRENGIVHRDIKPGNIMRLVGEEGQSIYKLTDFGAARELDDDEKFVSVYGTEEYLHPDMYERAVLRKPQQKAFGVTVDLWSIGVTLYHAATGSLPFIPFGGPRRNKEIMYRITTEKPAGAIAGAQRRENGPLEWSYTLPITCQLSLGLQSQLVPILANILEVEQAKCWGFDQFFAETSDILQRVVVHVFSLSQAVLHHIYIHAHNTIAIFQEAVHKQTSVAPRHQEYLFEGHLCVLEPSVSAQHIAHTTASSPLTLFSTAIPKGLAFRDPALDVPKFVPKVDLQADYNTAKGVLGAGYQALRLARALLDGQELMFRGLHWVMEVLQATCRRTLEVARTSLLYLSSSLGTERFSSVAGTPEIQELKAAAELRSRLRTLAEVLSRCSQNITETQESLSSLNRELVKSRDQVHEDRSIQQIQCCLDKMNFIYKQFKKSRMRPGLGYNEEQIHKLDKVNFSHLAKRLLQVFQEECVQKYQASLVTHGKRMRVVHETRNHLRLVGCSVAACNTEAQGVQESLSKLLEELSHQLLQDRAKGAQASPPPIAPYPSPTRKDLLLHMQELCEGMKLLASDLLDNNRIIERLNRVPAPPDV

[3] = biological target: T3, Tyrosine-protein kinase Mer (Homo sapiens) (UniProt Q12866); conditions: at 10 µM
T3 sequence (whole entry): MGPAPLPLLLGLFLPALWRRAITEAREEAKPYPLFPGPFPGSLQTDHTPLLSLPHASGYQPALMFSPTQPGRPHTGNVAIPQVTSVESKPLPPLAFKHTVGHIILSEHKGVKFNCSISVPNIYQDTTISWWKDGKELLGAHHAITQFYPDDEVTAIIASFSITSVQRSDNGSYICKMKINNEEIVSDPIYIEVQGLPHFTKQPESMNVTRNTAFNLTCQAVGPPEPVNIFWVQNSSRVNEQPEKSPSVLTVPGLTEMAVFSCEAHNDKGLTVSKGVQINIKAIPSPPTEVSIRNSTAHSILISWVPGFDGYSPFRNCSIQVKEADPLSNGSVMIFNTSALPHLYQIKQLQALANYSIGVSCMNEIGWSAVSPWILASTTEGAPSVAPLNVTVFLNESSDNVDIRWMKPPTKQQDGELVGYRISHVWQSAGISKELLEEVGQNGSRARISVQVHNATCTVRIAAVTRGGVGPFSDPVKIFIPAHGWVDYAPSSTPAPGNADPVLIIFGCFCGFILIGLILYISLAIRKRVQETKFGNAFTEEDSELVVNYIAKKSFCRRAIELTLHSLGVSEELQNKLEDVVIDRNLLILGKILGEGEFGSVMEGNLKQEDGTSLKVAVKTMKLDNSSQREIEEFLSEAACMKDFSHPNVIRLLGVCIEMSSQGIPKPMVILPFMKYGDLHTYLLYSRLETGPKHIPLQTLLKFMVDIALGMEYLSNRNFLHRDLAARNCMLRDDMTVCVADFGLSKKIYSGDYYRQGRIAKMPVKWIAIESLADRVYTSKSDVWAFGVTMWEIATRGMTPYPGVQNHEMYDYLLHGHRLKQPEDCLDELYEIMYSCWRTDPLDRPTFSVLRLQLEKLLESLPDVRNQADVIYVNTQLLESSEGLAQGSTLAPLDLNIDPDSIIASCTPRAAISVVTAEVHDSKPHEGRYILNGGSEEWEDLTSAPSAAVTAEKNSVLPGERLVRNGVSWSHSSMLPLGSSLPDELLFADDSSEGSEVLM

inhibition [1]	inhibition [2]	inhibition [3] [%]	SMILES
-2% and 2%	2% and 3%	2	NS(=O)(=O)c1ccc(Nc2ncc(-c3ccccc3)o2)cc1
-2% and 2%	3% and 4%	39	Cc1nc(-c2ccccc2)n2nc(NCCCN3CCOCC3)ncc12
